The numbers were not newly measured in patent publication US20040235792A1, “Serine protease inhibitors compromising a hydrogen-bond acceptor” (priority 2001, published 2004), which cites them from elsewhere.

Where a SMILES comes first, the peptide text is derived from it. [ ]: non-standard residue; d: D form. dPip = O=C(O)[C@H]1CCCCN1

Broadly, the pKa is the negative logarithm of the acid dissociation constant. The IC50 is the concentration needed to halve the response being measured.

The conditions of data set [1]: cited from earlier work.
A further data set deals with thrombin (Homo sapiens, UniProt P00734). The settings on record: cited from earlier work; for KassThr/KassThy: selectivity ratio.
A further data set deals with protein Ca (Homo sapiens, UniProt P04070). The settings on record: read-out: IC50 (protein Ca system); cited from earlier work.
Sequence of protein Ca (P04070 212-461 limits assumed): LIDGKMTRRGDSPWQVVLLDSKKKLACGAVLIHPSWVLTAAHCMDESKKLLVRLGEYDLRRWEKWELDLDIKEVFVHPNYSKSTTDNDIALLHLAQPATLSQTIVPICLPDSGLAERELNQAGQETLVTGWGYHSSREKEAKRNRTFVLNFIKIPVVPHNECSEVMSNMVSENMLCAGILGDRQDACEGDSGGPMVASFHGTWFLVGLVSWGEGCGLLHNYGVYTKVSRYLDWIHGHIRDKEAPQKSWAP
Sequence of protein Ca (P04070 43-197 partner limits assumed): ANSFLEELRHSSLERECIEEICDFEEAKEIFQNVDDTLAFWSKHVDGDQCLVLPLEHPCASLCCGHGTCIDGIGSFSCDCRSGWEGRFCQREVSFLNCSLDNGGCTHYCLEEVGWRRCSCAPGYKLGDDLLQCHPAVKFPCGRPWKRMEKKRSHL

For `c1ccc2ncccc2c1` [quinoline], in data set [1], the pKa is reported as 4.0.
With `CN[C@H](Cc1ccccc1)C(=O)N1CCC[C@H]1C(=O)N[C@H](C=O)CCCN=C(N)N` [LY294468, H-D-MePhe-Pro-Arginal], on thrombin, the KassThr was 5.4e+06 L/mol and the KassThr/KassThy is reported as 5.1.
Regarding `CC(=O)NC(Cc1ccccc1)C(=O)N1CCCC1C(=O)NC(CCCNC(=N)N)B(O)O` [DuP 714, Ac-D-Phe-Pro-boro Arg-OH], the concentration for half-maximal inhibition (IC50) at protein Ca was 750 nM.
For the compound `N=C(N)NCCC[C@@H](C=O)NC(=O)[C@@H]1CCCN1C(=O)[C@H]1CCCCN1` [D-hPro-Pro-Arg-H] (H-[dPip]-Pro-Arg-aldehyde), the KassThr at thrombin was 2e+06 L/mol.
With `CC(C)N(CC(=O)N[C@H](C=O)CCCNC(=N)N)C(=O)[C@H]1CCCCN1` [D-hPro-(Nα-isopropyl)Gly-Arg-H], the KassThr/KassThy at thrombin is 20.
